Experimental data: PubChem BioAssay (NCI)
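Briefly, cells in 96-well plates were exposed to five compound concentrations for 48 h, and endpoints were estimated by linear interpolation. At the GI50, growth is halved. The concentration for full growth arrest is given as TGI.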

Legend:
Test in all cases: growth of human tumour cells (NCI), 48 h
EKVX NSCLC = tested on: EKVX NSCLC
HCT-116 colon = tested on: HCT-116 colon
HCT-15 colon = tested on: HCT-15 colon
HOP-62 NSCLC = tested on: HOP-62 NSCLC
IGROV1 ovarian = tested on: IGROV1 ovarian
LOX IMVI melanoma = tested on: LOX IMVI melanoma
MDA-MB-231 breast = tested on: MDA-MB-231 breast
RXF 393 renal = tested on: RXF 393 renal
SF-539 CNS = tested on: SF-539 CNS
UACC-257 melanoma = tested on: UACC-257 melanoma

N#Cc1cnc2cc(OC[C@@H](O)CO)c(NC(=O)CC3CSSC3)cc2c1Nc1ccc(OCc2cccc(F)c2)c(Cl)c1
GI50 (EKVX NSCLC): 0.265 µM | TGI (EKVX NSCLC): 1.18 µM | GI50 (HCT-116 colon): 0.0882 µM | TGI (HCT-116 colon): 0.2 µM | GI50 (HCT-15 colon): 1.63 µM | TGI (HCT-15 colon): 6.51 µM | GI50 (HOP-62 NSCLC): 0.311 µM | TGI (HOP-62 NSCLC): 0.896 µM | GI50 (IGROV1 ovarian): 0.288 µM | TGI (IGROV1 ovarian): 1.11 µM | GI50 (LOX IMVI melanoma): 2.17 µM | TGI (LOX IMVI melanoma): 3.08 µM | GI50 (MDA-MB-231 breast): 0.104 µM | TGI (MDA-MB-231 breast): 0.237 µM | GI50 (RXF 393 renal): 0.643 µM | TGI (RXF 393 renal): 1.44 µM | GI50 (SF-539 CNS): 0.725 µM | TGI (SF-539 CNS): 1.47 µM | GI50 (UACC-257 melanoma): 0.195 µM | TGI (UACC-257 melanoma): 0.829 µM

CC(C)c1ccc(C(=O)Nc2sc3c(c2C#N)CCC(=O)C3)cc1
GI50 (EKVX NSCLC): 1.94 µM | TGI (EKVX NSCLC): > 88.8 µM | GI50 (HCT-116 colon): 0.18 µM | TGI (HCT-116 colon): > 24.3 µM | GI50 (HCT-15 colon): 0.31 µM | TGI (HCT-15 colon): 1.95 µM | GI50 (HOP-62 NSCLC): 3.02 µM | TGI (HOP-62 NSCLC): > 87.6 µM | GI50 (IGROV1 ovarian): 0.458 µM | TGI (IGROV1 ovarian): 13.1 µM | GI50 (LOX IMVI melanoma): 0.39 µM | TGI (LOX IMVI melanoma): > 33.4 µM | GI50 (MDA-MB-231 breast): 0.594 µM | TGI (MDA-MB-231 breast): 2.88 µM | GI50 (RXF 393 renal): 0.271 µM | TGI (RXF 393 renal): 1.14 µM | GI50 (SF-539 CNS): 0.337 µM | TGI (SF-539 CNS): 1.41 µM | GI50 (UACC-257 melanoma): 1.73 µM | TGI (UACC-257 melanoma): 6.05 µM

C[C@]1(CO)[C@H]2CC[C@@]34C=C[C@@](CO)(CC[C@H]3[C@]2(C)CC[C@H]1O)C4
TGI (EKVX NSCLC): > 100 µM | TGI (HCT-116 colon): > 100 µM | TGI (HCT-15 colon): > 100 µM | TGI (HOP-62 NSCLC): > 100 µM | TGI (IGROV1 ovarian): > 100 µM | TGI (LOX IMVI melanoma): > 100 µM | TGI (MDA-MB-231 breast): > 100 µM | TGI (RXF 393 renal): > 100 µM | TGI (SF-539 CNS): > 100 µM | TGI (UACC-257 melanoma): > 100 µM

O=C(Nc1ccc(Cl)cc1)c1ccc(NC2=C(Cl)C(=O)N(Cc3ccccc3)C2=O)cc1
GI50 (EKVX NSCLC): 26.7 µM | TGI (EKVX NSCLC): 89.5 µM | GI50 (HCT-116 colon): 2.41 µM | TGI (HCT-116 colon): 7.59 µM | GI50 (HCT-15 colon): 24.4 µM | TGI (HCT-15 colon): > 100 µM | GI50 (HOP-62 NSCLC): 14.1 µM | TGI (HOP-62 NSCLC): 27.7 µM | GI50 (IGROV1 ovarian): 0.98 µM | TGI (IGROV1 ovarian): 6.22 µM | GI50 (LOX IMVI melanoma): 12.7 µM | TGI (LOX IMVI melanoma): 32.7 µM | GI50 (MDA-MB-231 breast): 13.9 µM | TGI (MDA-MB-231 breast): 38.1 µM | GI50 (RXF 393 renal): 18.3 µM | TGI (RXF 393 renal): 44.9 µM | GI50 (SF-539 CNS): 17.5 µM | TGI (SF-539 CNS): 41.3 µM | GI50 (UACC-257 melanoma): 22.2 µM | TGI (UACC-257 melanoma): 63.5 µM

CC(C)c1ccc(/C(C(=O)O)=C(\O)C(=O)O)cc1
TGI (EKVX NSCLC): > 100 µM | TGI (HCT-116 colon): > 100 µM | TGI (HCT-15 colon): > 100 µM | TGI (HOP-62 NSCLC): > 100 µM | TGI (IGROV1 ovarian): > 100 µM | TGI (LOX IMVI melanoma): > 100 µM | TGI (MDA-MB-231 breast): > 100 µM | TGI (RXF 393 renal): > 100 µM | TGI (SF-539 CNS): > 100 µM | TGI (UACC-257 melanoma): > 100 µM

NC(=O)c1cc(Br)cc(C2CCCCC2)c1O
GI50 (EKVX NSCLC): 15.1 µM | TGI (EKVX NSCLC): 30.5 µM | GI50 (HCT-116 colon): 12.5 µM | TGI (HCT-116 colon): 25 µM | GI50 (HCT-15 colon): 13.7 µM | TGI (HCT-15 colon): 30.7 µM | GI50 (HOP-62 NSCLC): 14.1 µM | TGI (HOP-62 NSCLC): 28.4 µM | GI50 (IGROV1 ovarian): 12.4 µM | TGI (IGROV1 ovarian): 25.9 µM | GI50 (LOX IMVI melanoma): 13.2 µM | TGI (LOX IMVI melanoma): 26 µM | GI50 (MDA-MB-231 breast): 12.1 µM | TGI (MDA-MB-231 breast): 25.3 µM | GI50 (RXF 393 renal): 6.44 µM | TGI (RXF 393 renal): 22 µM | GI50 (SF-539 CNS): 15.2 µM | TGI (SF-539 CNS): 30.2 µM | GI50 (UACC-257 melanoma): 16.3 µM | TGI (UACC-257 melanoma): 30.1 µM

O=C(c1ccc2ncc(-c3nc(NC4CC4)ncc3F)n2c1)N1CCOCC1
GI50 (EKVX NSCLC): 2.85 µM | TGI (EKVX NSCLC): 71.7 µM | GI50 (HCT-116 colon): 1.23 µM | TGI (HCT-116 colon): 10.4 µM | GI50 (HCT-15 colon): 2.51 µM | TGI (HCT-15 colon): > 100 µM | GI50 (HOP-62 NSCLC): 2.95 µM | TGI (HOP-62 NSCLC): 8.28 µM | GI50 (IGROV1 ovarian): 2.42 µM | TGI (IGROV1 ovarian): 12.2 µM | GI50 (LOX IMVI melanoma): 1.11 µM | TGI (LOX IMVI melanoma): 41.4 µM | GI50 (MDA-MB-231 breast): 2.4 µM | TGI (MDA-MB-231 breast): 8.98 µM | GI50 (RXF 393 renal): 1.07 µM | TGI (RXF 393 renal): 3.02 µM | GI50 (SF-539 CNS): 1.8 µM | TGI (SF-539 CNS): 4.79 µM | GI50 (UACC-257 melanoma): 2.71 µM | TGI (UACC-257 melanoma): 8.43 µM

CCOc1cc2c(NCCCN(CCO)CCO)ncnc2c(OCC)c1OCC
TGI (EKVX NSCLC): > 100 µM | TGI (HCT-116 colon): > 100 µM | TGI (HCT-15 colon): > 100 µM | TGI (HOP-62 NSCLC): > 100 µM | TGI (IGROV1 ovarian): > 100 µM | TGI (LOX IMVI melanoma): > 100 µM | TGI (MDA-MB-231 breast): > 100 µM | TGI (RXF 393 renal): > 100 µM | TGI (SF-539 CNS): > 100 µM | TGI (UACC-257 melanoma): > 100 µM
